# Reference: PubChem BioAssay AID1259407 (Chemical Carcinogenesis Research Information System (CCRIS), 2018)
# Calls of active or inactive are those of the source. The rule behind the calls is not given here.
# Test system: CCRIS mutagenicity, Ames/micronucleus/aberration tests
# Assay: CCRIS mutagenicity studies
# Description: The CCRIS database contains chemical records with carcinogenicity, mutagenicity, tumor promotion, and tumor inhibition test results. It was developed by the National Cancer Institute (NCI). Data are derived from studies cited in primary journals, current awareness tools, NCI reports, and other sources. Test results have been reviewed by experts in carcinogenesis and mutagenesis.
# CCRIS provides historical information from the years 1985 - 2011. It is no longer updated.
# This is an archive assay for CCRIS mutagenicity studies.
# [1] = Test System: AMES SALMONELLA TYPHIMURIUM, Strain/Indicator: TA98, Metabolic Activation: NONE, Method: STANDARD PLATE
# [2] = Test System: AMES SALMONELLA TYPHIMURIUM, Strain/Indicator: TA100, Metabolic Activation: NONE, Method: STANDARD PLATE
# [3] = Test System: E. COLI, Strain/Indicator: WP2 UVRA, Metabolic Activation: NONE, Method: PREINCUBATION
compound,measurement,setting,value
Cc1ccc(C)cc1,mutagenic call,"Test System: AMES SALMONELLA TYPHIMURIUM, Strain/Indicator: TA98, Metabolic Activation: HAMSTER, LIVER, S-9, AROCLOR 1254, Method: PREINCUBATION",inactive; negative
same,mutagenic call,"Test System: AMES SALMONELLA TYPHIMURIUM, Strain/Indicator: TA98, Metabolic Activation: NONE, Method: PREINCUBATION",inactive; negative
same,mutagenic call,[1],inactive; negative
same,mutagenic call,"Test System: AMES SALMONELLA TYPHIMURIUM, Strain/Indicator: TA98, Metabolic Activation: RAT, LIVER, S-9, AROCLOR 1254, Method: PREINCUBATION",inactive; negative
same,mutagenic call,"Test System: AMES SALMONELLA TYPHIMURIUM, Strain/Indicator: TA98, Metabolic Activation: RAT, LIVER, S-9, AROCLOR, Method: STANDARD PLATE",inactive; negative
same,mutagenic call,"Test System: AMES SALMONELLA TYPHIMURIUM, Strain/Indicator: TA98, Metabolic Activation: RAT, LIVER, S-9, KC 500, Method: PREINCUBATION",inactive; negative
same,mutagenic call,"Test System: AMES SALMONELLA TYPHIMURIUM, Strain/Indicator: TA100, Metabolic Activation: HAMSTER, LIVER, S-9, AROCLOR 1254, Method: PREINCUBATION",inactive; negative
same,mutagenic call,"Test System: AMES SALMONELLA TYPHIMURIUM, Strain/Indicator: TA100, Metabolic Activation: NONE, Method: PREINCUBATION",inactive; negative
same,mutagenic call,[2],inactive; negative
same,mutagenic call,"Test System: AMES SALMONELLA TYPHIMURIUM, Strain/Indicator: TA100, Metabolic Activation: RAT, LIVER, S-9, AROCLOR 1254, Method: PREINCUBATION",inactive; negative
same,mutagenic call,"Test System: AMES SALMONELLA TYPHIMURIUM, Strain/Indicator: TA100, Metabolic Activation: RAT, LIVER, S-9, AROCLOR, Method: STANDARD PLATE",inactive; negative
same,mutagenic call,"Test System: AMES SALMONELLA TYPHIMURIUM, Strain/Indicator: TA100, Metabolic Activation: RAT, LIVER, S-9, KC 500, Method: PREINCUBATION",inactive; negative
same,mutagenic call,"Test System: AMES SALMONELLA TYPHIMURIUM, Strain/Indicator: TA1535, Metabolic Activation: HAMSTER, LIVER, S-9, AROCLOR 1254, Method: PREINCUBATION",inactive; negative
same,mutagenic call,"Test System: AMES SALMONELLA TYPHIMURIUM, Strain/Indicator: TA1535, Metabolic Activation: NONE, Method: PREINCUBATION",inactive; negative
same,mutagenic call,"Test System: AMES SALMONELLA TYPHIMURIUM, Strain/Indicator: TA1535, Metabolic Activation: RAT, LIVER, S-9, AROCLOR 1254, Method: PREINCUBATION",inactive; negative
same,mutagenic call,"Test System: AMES SALMONELLA TYPHIMURIUM, Strain/Indicator: TA1535, Metabolic Activation: RAT, LIVER, S-9, KC 500, Method: PREINCUBATION",inactive; negative
same,mutagenic call,"Test System: AMES SALMONELLA TYPHIMURIUM, Strain/Indicator: TA1537, Metabolic Activation: HAMSTER, LIVER, S-9, AROCLOR 1254, Method: PREINCUBATION",inactive; negative
same,mutagenic call,"Test System: AMES SALMONELLA TYPHIMURIUM, Strain/Indicator: TA1537, Metabolic Activation: NONE, Method: PREINCUBATION",inactive; negative
same,mutagenic call,"Test System: AMES SALMONELLA TYPHIMURIUM, Strain/Indicator: TA1537, Metabolic Activation: RAT, LIVER, S-9, AROCLOR 1254, Method: PREINCUBATION",inactive; negative
same,mutagenic call,"Test System: AMES SALMONELLA TYPHIMURIUM, Strain/Indicator: TA1537, Metabolic Activation: RAT, LIVER, S-9, KC 500, Method: PREINCUBATION",inactive; negative
same,mutagenic call,"Test System: AMES SALMONELLA TYPHIMURIUM, Strain/Indicator: TA1538, Metabolic Activation: NONE, Method: PREINCUBATION",inactive; negative
same,mutagenic call,"Test System: AMES SALMONELLA TYPHIMURIUM, Strain/Indicator: TA1538, Metabolic Activation: RAT, LIVER, S-9, KC 500, Method: PREINCUBATION",inactive; negative
same,mutagenic call,"Test System: AMES SALMONELLA TYPHIMURIUM, Strain/Indicator: UTH8413, Metabolic Activation: NONE, Method: STANDARD PLATE",inactive; negative
same,mutagenic call,"Test System: AMES SALMONELLA TYPHIMURIUM, Strain/Indicator: UTH8413, Metabolic Activation: RAT, LIVER, S-9, AROCLOR, Method: STANDARD PLATE",inactive; negative
same,mutagenic call,"Test System: AMES SALMONELLA TYPHIMURIUM, Strain/Indicator: UTH8414, Metabolic Activation: NONE, Method: STANDARD PLATE",inactive; negative
same,mutagenic call,"Test System: AMES SALMONELLA TYPHIMURIUM, Strain/Indicator: UTH8414, Metabolic Activation: RAT, LIVER, S-9, AROCLOR, Method: STANDARD PLATE",inactive; negative
same,mutagenic call,[3],inactive; negative
same,mutagenic call,"Test System: E. COLI, Strain/Indicator: WP2 UVRA, Metabolic Activation: RAT, LIVER, S-9, KC 500, Method: PREINCUBATION",inactive; negative
O=C1NC(=O)C(Cl)(Cl)C1=C(Cl)Cl,mutagenic call,[2],active; positive
CCCCN(N=O)C(=O)N(C)C,mutagenic call,[3],active; positive
same,mutagenic call,"Test System: E. COLI, Strain/Indicator: WP2 UVRA, Metabolic Activation: RAT, LIVER, S-9, PHENOBARBITAL AND 5,6-BENZOFLAVONE, Method: PREINCUBATION",active; positive
Cc1ccc(-c2nc(-c3ccc(C)cc3C)[nH]c2-c2ccc(C)cc2)cc1,mutagenic call,[1],active; positive
same,mutagenic call,"Test System: AMES SALMONELLA TYPHIMURIUM, Strain/Indicator: TA98, Metabolic Activation: RAT LIVER S-9, 3-METHYLCHOLANTHRENE, SODIUM PHENOBARBITAL, Method: STANDARD PLATE",active; positive
same,mutagenic call,[2],active; positive
same,mutagenic call,"Test System: AMES SALMONELLA TYPHIMURIUM, Strain/Indicator: TA100, Metabolic Activation: RAT LIVER S-9, 3-METHYLCHOLANTHRENE, SODIUM PHENOBARBITAL, Method: STANDARD PLATE",active; positive
NC(=O)N(CCCCO)N=O,mutagenic call,"Test System: E. COLI B, Strain/Indicator: H/R30R, Metabolic Activation: NONE",active; positive
same,mutagenic call,"Test System: E. COLI B, Strain/Indicator: HS30R, Metabolic Activation: NONE",active; positive
Cc1cccc2cc3ccccc3cc12,mutagenic call,[1],inactive; negative
same,mutagenic call,"Test System: AMES SALMONELLA TYPHIMURIUM, Strain/Indicator: TA98, Metabolic Activation: RAT, LIVER, S-9, AROCLOR 1254, Method: STANDARD PLATE",inactive; negative
same,mutagenic call,[2],inactive; negative
same,mutagenic call,"Test System: AMES SALMONELLA TYPHIMURIUM, Strain/Indicator: TA100, Metabolic Activation: RAT, LIVER, S-9, AROCLOR 1254, Method: STANDARD PLATE",inactive; negative
CCn1cc(C(=O)O)c(=O)c2cc(F)c(N3CCN(C)CC3)cc21,mutagenic call,"Test System: AMES SALMONELLA TYPHIMURIUM, Strain/Indicator: TA102, Metabolic Activation: NONE, Method: STANDARD PLATE",active; positive
same,mutagenic call,"Test System: CHINESE HAMSTER V-79, Strain/Indicator: V-79 (HPRT)/6-THIOGUANINE, Metabolic Activation: NONE",inactive; negative
O=C(O)c1cc(Cl)ccc1O,mutagenic call,"Test System: AMES SALMONELLA TYPHIMURIUM, Strain/Indicator: TA1538, Metabolic Activation: NONE, Method: STANDARD PLATE",inactive; negative
same,mutagenic call,"Test System: AMES SALMONELLA TYPHIMURIUM, Strain/Indicator: TA1538, Metabolic Activation: RAT,LIVER, S-9, AROCLOR 1254, Method: STANDARD PLATE",inactive; negative
[CH]#[W],mutagenic call,"End Point: IN VITRO MICRONUCLEUS, Test System: HUMAN LYMPHOCYTES, Metabolic Activation: NONE",active; positive
